What was measured:
[1] = biological target: GDP-bound HRAS wild-type protein (Homo sapiens, UniProt P01112); experiment: Binding to HRAS by surface plasmon resonance (SPR), Single Cycle Kinetics; settings: for HRAS/KRAS (ratio of KD value with respect to HRAS to KD value with respect to KRAS): SPR, GDP-bound HRAS wild-type vs GDP-bound KRAS wild-type; for HRAS/KRAS (ratio of KD value with respect to GDP-bound HRAS wild-type protein to KD value with respect to KRAS): class symbols
[2] = biological target: GDP-bound NRAS wild-type protein (Homo sapiens, UniProt P01111); experiment: Binding to NRAS by surface plasmon resonance (SPR), Single Cycle Kinetics; settings: for NRAS/KRAS (ratio of KD value with respect to NRAS to KD value with respect to KRAS): SPR, GDP-bound NRAS wild-type vs GDP-bound KRAS wild-type; for NRAS/KRAS (ratio of KD value with respect to GDP-bound NRAS wild-type protein to KD value with respect to KRAS): class symbols
Sequence of GDP-bound NRAS wild-type protein (P01111 whole entry): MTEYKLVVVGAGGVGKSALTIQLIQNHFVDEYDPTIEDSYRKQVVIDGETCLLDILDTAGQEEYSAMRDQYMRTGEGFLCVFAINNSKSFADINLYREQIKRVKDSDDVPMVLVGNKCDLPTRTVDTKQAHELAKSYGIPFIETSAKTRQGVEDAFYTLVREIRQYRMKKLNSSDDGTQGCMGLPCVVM

Sequence of GDP-bound HRAS wild-type protein (P01112 whole entry): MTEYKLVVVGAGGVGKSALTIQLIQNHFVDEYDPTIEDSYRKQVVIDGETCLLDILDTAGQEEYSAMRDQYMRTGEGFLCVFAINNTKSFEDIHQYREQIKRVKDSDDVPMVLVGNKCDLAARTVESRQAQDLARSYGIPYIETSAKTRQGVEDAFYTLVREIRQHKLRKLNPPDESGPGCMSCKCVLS

| Compound | HRAS/KRAS (ratio of KD value with respect to HRAS to KD value with respect to KRAS) [1] | NRAS/KRAS (ratio of KD value with respect to NRAS to KD value with respect to KRAS) [2] | HRAS/KRAS (ratio of KD value with respect to GDP-bound HRAS wild-type protein to KD value with respect to KRAS) [1] | NRAS/KRAS (ratio of KD value with respect to GDP-bound NRAS wild-type protein to KD value with respect to KRAS) [2] |
| --- | --- | --- | --- | --- |
| C#CCN1CC(=O)N(C)[C@H]2C/C=C\CCN(C2=O)[C@@H](Cc2ccc(C)cc2)C(=O)N(C)CC(=O)N[C@@H](CCc2cc(F)c(C(F)(F)F)c(F)c2)C(=O)N2C[C@H](OCC)C[C@H]2C(=O)NC2(CC(C)(C)C2)C(=O)N(C)[C@@H](C2CCCC2)C(=O)N(C)[C@H](C(=O)N(C)C)CC(=O)N(C)[C@@H](CCC)C(=O)N[C@@H](CC(C)C)C1=O [PP2512] | A (a compound having 10 or more and less than 20 is denoted as A) | A (a compound having 10 or more and less than 20 is denoted as A) | – | – |
| CC[C@H](C)[C@@H]1NC(=O)[C@H](COC)N(C)C(=O)C[C@@H](C(=O)N(C)C)N(C)C(=O)[C@H](C2CCCC2)N(C)C(=O)C2(CC(C)(C)C2)NC(=O)[C@@H]2C[C@@H](OC(C)C)CN2C(=O)[C@H](CCc2ccc(Cl)c(Cl)c2)NC(=O)CN(C)C(=O)[C@H](CC2CCCCC2)N2CC/C=C\C[C@@H](C2=O)N(C)C(=O)CN(C2CC2)C1=O [PP2513] | A (a compound having 10 or more and less than 20 is denoted as A) | A (a compound having 10 or more and less than 20 is denoted as A) | – | – |
| C#CCN1CC(=O)N(C)[C@H]2C/C=C\CCN(C2=O)[C@@H](Cc2ccc(C)cc2)C(=O)N(C)CC(=O)N[C@@H](CCc2ccc(C(F)(F)F)c(OC)c2)C(=O)N2C[C@H](OCC)C[C@H]2C(=O)NC2(CC(C)(C)C2)C(=O)N(C)[C@@H](C2CCCC2)C(=O)N(C)[C@H](C(=O)N(C)C)CC(=O)N(C)[C@@H](CCC)C(=O)N[C@@H](CC(C)C)C1=O [PP2514] | B (a compound having 3 or more and less than 10 is denoted as B) | A (a compound having 10 or more and less than 20 is denoted as A) | – | – |
| CCC(CC)[C@H]1C(=O)N(C)[C@H](C(=O)N(C)C)CC(=O)N(C)[C@@H](COC)C(=O)N[C@@H]([C@@H](C)CC)C(=O)N(C2CC2)CC(=O)N(C)[C@H]2C/C=C\CCN(C2=O)[C@@H](CC2CCCCC2)C(=O)N(C)CC(=O)N[C@@H](CCc2cc(F)c(C(F)(F)F)c(F)c2)C(=O)N2C[C@H](OC(C)C)C[C@H]2C(=O)NC2(CC(C)(C)C2)C(=O)N1C [PP2515] | A (a compound having 10 or more and less than 20 is denoted as A) | A (a compound having 10 or more and less than 20 is denoted as A) | – | – |
| CCC[C@H]1C(=O)N[C@@H](CC(C)C)C(=O)N(CC)CC(=O)N(C)[C@H]2C/C=C\CCN(C2=O)[C@@H](Cc2ccc(C)cc2)C(=O)N(C)CC(=O)N[C@@H](CCc2cc(F)c(C(F)(F)F)c(F)c2)C(=O)N2C[C@H](OCC)C[C@H]2C(=O)NC2(CC(C)(C)C2)C(=O)N(C)[C@@H](C2CCCC2)C(=O)N(C)[C@H](C(=O)N(C)C)CC(=O)N1C [PP2516] | B (a compound having 3 or more and less than 10 is denoted as B) | A (a compound having 10 or more and less than 20 is denoted as A) | – | – |
| CCC[C@H]1C(=O)N[C@@H](CC(C)C)C(=O)N(CC)CC(=O)N(C)[C@H]2C/C=C\CCN(C2=O)[C@@H](Cc2ccc(C)cc2)C(=O)N(C)CC(=O)N[C@@H](CCc2ccc(C(F)(F)F)c(OC)c2)C(=O)N2C[C@H](OCC)C[C@H]2C(=O)NC2(CC(C)(C)C2)C(=O)N(C)[C@@H](C2CCCC2)C(=O)N(C)[C@H](C(=O)N(C)C)CC(=O)N1C [PP2518] | A (a compound having 10 or more and less than 20 is denoted as A) | A (a compound having 10 or more and less than 20 is denoted as A) | – | – |
| CCC[C@H]1C(=O)N[C@@H](CC(C)C)C(=O)N(CCOC)CC(=O)N(C)[C@H]2C/C=C\CCN(C2=O)[C@@H](Cc2ccc(C)cc2)C(=O)N(C)CC(=O)N[C@@H](CCc2cc(F)c(C(F)(F)F)c(F)c2)C(=O)N2C[C@H](OCC)C[C@H]2C(=O)NC2(CC(C)(C)C2)C(=O)N(C)[C@@H](C2CCCC2)C(=O)N(C)[C@H](C(=O)N(C)C)CC(=O)N1C [PP2520] | A (a compound having 10 or more and less than 20 is denoted as A) | A (a compound having 10 or more and less than 20 is denoted as A) | – | – |
| CCC[C@H]1C(=O)N[C@@H]([C@@H](C)CC)C(=O)N(C2CC2)CC(=O)N(C)[C@H]2C/C=C\CCN(C2=O)[C@@H](CC2CCC(F)(F)CC2)C(=O)N(C)CC(=O)N[C@@H](CCc2ccc(Cl)c(Cl)c2)C(=O)N2C[C@H](OC(C)C)C[C@H]2C(=O)NC2(CC(C)(C)C2)C(=O)N(C)[C@@H](C2CCCC2)C(=O)N(C)[C@H](C(=O)N(C)C)CC(=O)N1C [PP2521] | A (a compound having 10 or more and less than 20 is denoted as A) | A (a compound having 10 or more and less than 20 is denoted as A) | – | – |
| CCC[C@H]1C(=O)N[C@@H](CC(C)C)C(=O)N(CCOC)CC(=O)N(C)[C@H]2C/C=C\CCN(C2=O)[C@@H](Cc2ccc(C)cc2)C(=O)N(C)CC(=O)N[C@@H](CCc2ccc(C(F)(F)F)c(OC)c2)C(=O)N2C[C@H](OCC)C[C@H]2C(=O)NC2(CC(C)(C)C2)C(=O)N(C)[C@@H](C2CCCC2)C(=O)N(C)[C@H](C(=O)N(C)C)CC(=O)N1C [PP2522] | – | – | B (a compound having 3 or more and less than 10 is denoted as B) | B (a compound having 3 or more and less than 10 is denoted as B) |
| CCC(CC)[C@H]1C(=O)N(C)[C@H](C(=O)N(C)C)CC(=O)N(C)[C@@H](COC)C(=O)N[C@@H]([C@@H](C)CC)C(=O)N(C2CC2)CC(=O)N(C)[C@H]2C/C=C\CCN(C2=O)[C@@H](CC2CCC(F)(F)CC2)C(=O)N(C)CC(=O)N[C@@H](CCc2cc(F)c(C(F)(F)F)c(F)c2)C(=O)N2C[C@H](OC(C)C)C[C@H]2C(=O)NC2(CC(C)(C)C2)C(=O)N1C [PP2523] | – | – | A (a compound having 10 or more and less than 20 is denoted as A) | A (a compound having 10 or more and less than 20 is denoted as A) |
| CCC(CC)[C@H]1C(=O)N(C)[C@H](C(=O)N(C)C)CC(=O)N(C)[C@@H](COC)C(=O)N[C@@H]([C@@H](C)CC)C(=O)N(C2CC2)CC(=O)N(C)[C@H]2C/C=C\CCN(C2=O)[C@@H](CC2CCC(F)(F)CC2)C(=O)N(C)CC(=O)N[C@@H](CCc2ccc(Cl)c(Cl)c2)C(=O)N2C[C@H](OC(C)C)C[C@H]2C(=O)NC2(CC(C)(C)C2)C(=O)N1C [PP2525] | – | – | A (a compound having 10 or more and less than 20 is denoted as A) | AA (a compound having 20 or more is denoted as AA) |
| C#CCN1CC(=O)N(C)[C@H]2C/C=C\CCN(C2=O)[C@@H](Cc2ccc(C)cc2)C(=O)N(C)CC(=O)N[C@@H](CCc2ccc(C(F)(F)F)c(Cl)c2)C(=O)N2C[C@H](OCC)C[C@H]2C(=O)NC2(CC(C)(C)C2)C(=O)N(C)[C@@H](C2CCCC2)C(=O)N(C)[C@H](C(=O)N(C)C)CC(=O)N(C)[C@@H](CCC)C(=O)N[C@@H](CC(C)C)C1=O [PP2526] | – | – | B (a compound having 3 or more and less than 10 is denoted as B) | A (a compound having 10 or more and less than 20 is denoted as A) |
| CCC[C@H]1C(=O)N[C@@H]([C@@H](C)CC)C(=O)N(C2CC2)CC(=O)N(C)[C@H]2C/C=C\CCN(C2=O)[C@@H](Cc2ccc(C(F)F)cc2)C(=O)N(C)CC(=O)N[C@@H](CCc2cc(F)c(C(F)(F)F)c(F)c2)C(=O)N2C[C@H](OCC)C[C@H]2C(=O)NC2(CC(C)(C)C2)C(=O)N(C)[C@@H](C(CC)CC)C(=O)N(C)[C@H](C(=O)N(C)C)CC(=O)N1C [PP2527] | – | – | A (a compound having 10 or more and less than 20 is denoted as A) | AA (a compound having 20 or more is denoted as AA) |
| CCC[C@H]1C(=O)N[C@@H](CC(C)C)C(=O)N(CC)CC(=O)N(C)[C@H]2C/C=C\CCN(C2=O)[C@@H](Cc2ccc(C)cc2)C(=O)N(C)CC(=O)N[C@@H](CCc2ccc(C(F)(F)F)c(Cl)c2)C(=O)N2C[C@H](OCC)C[C@H]2C(=O)NC2(CC(C)(C)C2)C(=O)N(C)[C@@H](C2CCCC2)C(=O)N(C)[C@H](C(=O)N(C)C)CC(=O)N1C [PP2528] | – | – | B (a compound having 3 or more and less than 10 is denoted as B) | A (a compound having 10 or more and less than 20 is denoted as A) |
| CCC[C@H]1C(=O)N[C@@H]([C@@H](C)CC)C(=O)N(C2CC2)CC(=O)N(C)[C@H]2C/C=C\CCN(C2=O)[C@@H](Cc2ccc(C(F)F)cc2)C(=O)N(C)CC(=O)N[C@@H](CCc2cc(F)c(C(F)(F)F)c(F)c2)C(=O)N2C[C@H](OC(C)C)C[C@H]2C(=O)NC2(CC(C)(C)C2)C(=O)N(C)[C@@H](C(CC)CC)C(=O)N(C)[C@H](C(=O)N(C)C)CC(=O)N1C [PP2529] | – | – | A (a compound having 10 or more and less than 20 is denoted as A) | AA (a compound having 20 or more is denoted as AA) |
